Data: ChEMBL document CHEMBL4725392, “Orally Bioavailable Small-Molecule CD73 Inhibitor (OP-5244) Reverses Immunosuppression through Blockade of Adenosine Production” (J Med Chem, 2020)
Calls of active or inactive are those of the source. No cut-off for these calls is given here.

Tests used:
[1] = target: T1, 5'-nucleotidase (Homo sapiens, UniProt P21589); assay: Inhibition of CD73 in CD3/CD28/CD2 activated human CD8+ T-cells assessed as increase in TNFalpha protein expression at 4.1 to 1000 nM preincubated for 15 mins followed by AMP addition and measured after 96 hr by ELISA; format: tissue-based; conditions: CD8-positive T cell, dose nM 4.1-1000, time 15.0 min
[2] = target: T2, 5'-nucleotidase (Mus musculus) (UniProt Q61503); assay: Inhibition of CD73 in AMP-induced mouse E.G7-OVA cells at 10 to 100 nM incubated for 60 mins by Wachstein-Meisel lead phosphate method; format: cell-based; conditions: dose nM 10-100, time 60.0 min
T2 sequence (whole entry): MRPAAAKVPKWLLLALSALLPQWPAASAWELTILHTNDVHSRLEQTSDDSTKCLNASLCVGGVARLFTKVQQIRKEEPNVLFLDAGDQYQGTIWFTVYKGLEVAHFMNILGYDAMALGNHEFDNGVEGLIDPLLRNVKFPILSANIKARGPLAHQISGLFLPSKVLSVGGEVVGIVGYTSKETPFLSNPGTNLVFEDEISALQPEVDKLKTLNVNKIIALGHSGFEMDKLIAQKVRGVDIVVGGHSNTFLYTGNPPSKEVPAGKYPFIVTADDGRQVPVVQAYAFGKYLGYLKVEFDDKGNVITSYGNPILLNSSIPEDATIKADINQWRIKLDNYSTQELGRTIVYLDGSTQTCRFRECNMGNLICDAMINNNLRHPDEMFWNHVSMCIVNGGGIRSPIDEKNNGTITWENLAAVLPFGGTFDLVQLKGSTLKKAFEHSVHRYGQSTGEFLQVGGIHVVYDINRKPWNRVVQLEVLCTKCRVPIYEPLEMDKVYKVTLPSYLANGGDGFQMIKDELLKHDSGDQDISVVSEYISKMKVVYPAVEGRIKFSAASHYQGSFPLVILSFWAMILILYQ

[3] = target: T1, 5'-nucleotidase; assay: Inhibition of CD73 in CD3/CD28/CD2 activated human CD8+ T-cells assessed as increase in T cell proliferation at 4.1 to 1000 nM preincubated for 15 mins followed by AMP addition and measured after 96 hr by flow cytometric analysis; format: tissue-based; conditions: CD8-positive T cell, dose nM 4.1-1000, time 15.0 min
[4] = Volume of distribution at steady state in cynomolgus monkey at 0.2 mg/kg, iv; format: ADME, organism-based, Macaca fascicularis; conditions: in vivo, read-out: Vdss
[5] = tested on: E.G7-OVA; assay: Antitumour activity against mouse E.G7-OVA cells implanted in C57BL/6 mouse assessed as increase in percentage of CD8+ T cells in total CD45+ leukocytes at 150 mg/kg, po BID for 16 days; format: functional, organism-based; conditions: time 16.0 day
[6] = target: T3, Cytochrome P450 2C8 (Homo sapiens, UniProt P10632); assay: Inhibition of CYP2C8 (unknown origin); format: ADME
T3 sequence (P10632 whole entry): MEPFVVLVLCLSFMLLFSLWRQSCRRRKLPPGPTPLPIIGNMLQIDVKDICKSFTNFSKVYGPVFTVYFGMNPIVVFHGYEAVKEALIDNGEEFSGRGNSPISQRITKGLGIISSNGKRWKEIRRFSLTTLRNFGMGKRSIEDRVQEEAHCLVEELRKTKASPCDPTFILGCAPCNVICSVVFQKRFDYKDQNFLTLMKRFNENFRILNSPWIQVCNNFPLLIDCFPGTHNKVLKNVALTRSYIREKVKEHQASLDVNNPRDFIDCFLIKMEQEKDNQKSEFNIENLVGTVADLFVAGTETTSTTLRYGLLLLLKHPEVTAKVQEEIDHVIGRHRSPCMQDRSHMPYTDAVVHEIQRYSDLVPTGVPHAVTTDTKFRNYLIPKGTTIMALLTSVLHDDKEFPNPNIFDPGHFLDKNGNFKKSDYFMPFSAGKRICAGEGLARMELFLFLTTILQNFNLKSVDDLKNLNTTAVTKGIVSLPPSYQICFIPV

[7] = Clearance in rat at 0.2 mg/kg, iv; format: ADME, organism-based; conditions: in vivo
[8] = Volume of distribution at steady state in dog at 0.2 mg/kg, iv; format: ADME, organism-based, Canis lupus familiaris; conditions: in vivo, read-out: Vdss
[9] = tested on: E.G7-OVA; assay: Antitumour activity against mouse E.G7-OVA cells implanted in C57BL/6 mouse assessed as increase in CD8+/Treg ratio at 150 mg/kg, po BID for 16 days; format: functional, organism-based; conditions: time 16.0 day
[10] = AUC infinity in mouse at 200 mg/kg, po; format: ADME, organism-based; design: route oral, time infinity, dose 200 mg/kg; conditions: in vivo
[11] = target: Cytochrome P450 3A4 (Homo sapiens, UniProt P08684); assay: Inhibition of CYP3A4 (unknown origin); format: ADME
[12] = target: T1, 5'-nucleotidase; assay: Inhibition of CD73 in human NCI-H1568 cells assessed as reduction in AMP-induced ADO expression preincubated for 15 mins followed by AMP addition and measured after 1 hr by LC-MS/MS analysis; format: cell-based
[13] = Cmax in dog at 10 mg/kg, po; format: ADME, organism-based, Canis lupus familiaris; design: route oral, dose 10 mg/kg; conditions: in vivo
[14] = target: T1, 5'-nucleotidase; assay: Inhibition of CD73 in human NCI-H1568 cells assessed as reduction in AMP-induced ADO expression preincubated for 15 mins followed by AMP addition and measured after 1 hr by LC-MS/MS analysis relative to control; format: cell-based
[15] = target: T1, 5'-nucleotidase; assay: Inhibition of human C-terminal His6-tagged CD73 expressed in CHO cells preincubated for 15 mins followed by AMP addition and measured after 10 mins by malachite green reagent based assay; format: cell-based
[16] = tested on: EMT6; assay: Antitumor activity against mouse EMT6 cells implanted in BALB/c mouse assessed as decrease in ADO expression at 15 mg/kg, sc and measured on day 13 relative to control; format: functional; design: scale not given: the % may be the effect or the level left; conditions: time 13 day
[17] = Volume of distribution at steady state in rat at 0.2 mg/kg, iv; format: ADME, organism-based; conditions: in vivo, read-out: Vdss
[18] = tested on: EMT6; assay: Antitumor activity against mouse EMT6 cells implanted in BALB/c mouse assessed as tumour growth inhibition at 15 mg/kg, sc and measured on day 13; format: functional, organism-based; conditions: time 13.0 day
[19] = Cmax in rat at 10 mg/kg, po; format: ADME, organism-based; design: route oral, dose 10 mg/kg; conditions: in vivo
[20] = AUC in cynomolgus monkey at 10 mg/kg, po; format: ADME, organism-based, Macaca fascicularis; design: dose 10 mg/kg; conditions: in vivo
[21] = target: T4, 5'-nucleotidase (Mus musculus, UniProt Q61503); assay: Inhibition of CD73 in mouse EMT6 cells assessed as reduction in AMP-induced ADO expression preincubated for 15 mins followed by AMP addition and measured after 1 hr by LC-MS/MS analysis; format: cell-based
T4 sequence (Q61503 whole entry): T2 sequence (whole entry)

[22] = target: T1, 5'-nucleotidase; assay: Inhibition of CD73 in human CD8+ T-cells assessed as reduction in AMP-induced ADO expression preincubated for 15 mins followed by AMP addition and measured after 1 hr by LC-MS/MS analysis relative to control; format: tissue-based; conditions: CD8-positive T cell
[23] = target: Cytochrome P450 2C9 (Homo sapiens, UniProt P11712); assay: Inhibition of CYP2C9 (unknown origin); format: ADME
[24] = Terminal half life in cynomolgus monkey at 0.2 mg/kg, iv; format: ADME, organism-based, Macaca fascicularis; conditions: in vivo, read-out: beta t1/2 (converted)
[25] = Terminal half life in rat at 0.2 mg/kg, iv; format: ADME, organism-based; conditions: in vivo, read-out: beta t1/2 (converted)
[26] = Terminal half life in dog at 0.2 mg/kg, iv; format: ADME, organism-based, Canis lupus familiaris; conditions: in vivo, read-out: beta t1/2 (converted)
[27] = Cmax in mouse at 200 mg/kg, po; format: ADME, organism-based; design: route oral, dose 200 mg/kg; conditions: in vivo
[28] = tested on: EMT6; assay: Antitumor activity against mouse EMT6 cells implanted in BALB/c mouse assessed as decrease in ADO/AMP ratio at 15 mg/kg, sc and measured on day 13 relative to control; format: functional; design: scale not given: the % may be the effect or the level left; conditions: time 13 day
[29] = target: T2, 5'-nucleotidase (Mus musculus); assay: Inhibition of CD73 in mouse EMT6 cells assessed as reduction in AMP-induced ADO expression preincubated for 15 mins followed by AMP addition and measured after 1 hr by LC-MS/MS analysis relative to control; format: cell-based
[30] = target: T2, 5'-nucleotidase (Mus musculus); assay: Inhibition of CD73 in AMP-induced mouse E.G7-OVA cells incubated for 60 mins by Wachstein-Meisel lead phosphate method; format: cell-based; conditions: dose nM 10-100, time 60.0 min
[31] = Clearance in cynomolgus monkey at 0.2 mg/kg, iv; format: ADME, organism-based, Macaca fascicularis; conditions: in vivo
[32] = Cmax in cynomolgus monkey at 10 mg/kg, po; format: ADME, organism-based, Macaca fascicularis; design: route oral, dose 10 mg/kg; conditions: in vivo
[33] = Clearance in dog at 0.2 mg/kg, iv; format: ADME, organism-based, Canis lupus familiaris; conditions: in vivo
[34] = AUC in dog at 10 mg/kg, po; format: ADME, organism-based, Canis lupus familiaris; design: dose 10 mg/kg; conditions: in vivo
[35] = AUC in rat at 10 mg/kg, po; format: ADME, organism-based; design: dose 10 mg/kg; conditions: in vivo
[36] = AUC in rat at 0.2 mg/kg, iv; format: ADME, organism-based; design: dose 0.2 mg/kg; conditions: in vivo
[37] = AUC in cynomolgus monkey at 0.2 mg/kg, iv; format: ADME, organism-based, Macaca fascicularis; design: dose 0.2 mg/kg; conditions: in vivo
[38] = AUC in dog at 0.2 mg/kg, iv; format: ADME, organism-based, Canis lupus familiaris; design: dose 0.2 mg/kg; conditions: in vivo
[39] = target: T1, 5'-nucleotidase; assay: Inhibition of CD73 in human CD8+ T-cells assessed as reduction in AMP-induced ADO expression preincubated for 15 mins followed by AMP addition and measured after 1 hr by LC-MS/MS analysis; format: tissue-based, CD8-positive T cell
[40] = Terminal half life in mouse at 200 mg/kg, po; format: ADME, organism-based; conditions: in vivo, read-out: beta t1/2 (converted)
[41] = target: T1, 5'-nucleotidase; assay: Inhibition of CD73 in CD3/CD28/CD2 activated human CD8+ T-cells assessed as increase in IFNgamma protein expression at 4.1 to 1000 nM preincubated for 15 mins followed by AMP addition and measured after 96 hr by ELISA; format: tissue-based; conditions: CD8-positive T cell, dose nM 4.1-1000, time 15.0 min

T1 sequence (P21589 whole entry): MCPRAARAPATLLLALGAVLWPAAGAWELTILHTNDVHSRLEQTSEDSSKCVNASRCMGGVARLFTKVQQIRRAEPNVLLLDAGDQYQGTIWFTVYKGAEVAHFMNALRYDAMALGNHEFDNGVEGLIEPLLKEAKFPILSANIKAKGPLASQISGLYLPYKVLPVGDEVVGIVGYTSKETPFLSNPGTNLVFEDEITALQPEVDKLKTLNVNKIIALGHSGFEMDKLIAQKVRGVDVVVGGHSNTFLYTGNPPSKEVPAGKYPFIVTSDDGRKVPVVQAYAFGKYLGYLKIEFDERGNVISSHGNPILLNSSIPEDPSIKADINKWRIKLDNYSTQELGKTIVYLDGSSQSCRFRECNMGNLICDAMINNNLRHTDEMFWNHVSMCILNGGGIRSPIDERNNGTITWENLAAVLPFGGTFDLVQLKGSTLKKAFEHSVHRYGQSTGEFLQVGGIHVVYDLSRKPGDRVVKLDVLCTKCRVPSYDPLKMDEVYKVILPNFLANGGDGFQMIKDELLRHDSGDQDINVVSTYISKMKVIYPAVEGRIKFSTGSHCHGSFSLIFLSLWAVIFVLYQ
Sequence of Cytochrome P450 3A4 (P08684 whole entry): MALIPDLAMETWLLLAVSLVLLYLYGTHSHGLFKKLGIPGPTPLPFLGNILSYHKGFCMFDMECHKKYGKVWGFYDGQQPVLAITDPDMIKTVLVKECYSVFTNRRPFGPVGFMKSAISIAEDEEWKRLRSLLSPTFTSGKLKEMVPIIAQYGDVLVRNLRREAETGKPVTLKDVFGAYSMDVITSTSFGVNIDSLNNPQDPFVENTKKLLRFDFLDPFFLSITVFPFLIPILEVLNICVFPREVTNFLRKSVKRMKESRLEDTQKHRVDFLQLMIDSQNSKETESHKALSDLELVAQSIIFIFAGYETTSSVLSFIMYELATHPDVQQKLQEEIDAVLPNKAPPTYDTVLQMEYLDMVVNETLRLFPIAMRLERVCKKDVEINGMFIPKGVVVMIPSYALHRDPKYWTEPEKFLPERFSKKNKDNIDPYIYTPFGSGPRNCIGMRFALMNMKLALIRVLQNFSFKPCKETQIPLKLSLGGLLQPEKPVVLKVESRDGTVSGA
Sequence of Cytochrome P450 2C9 (P11712 whole entry): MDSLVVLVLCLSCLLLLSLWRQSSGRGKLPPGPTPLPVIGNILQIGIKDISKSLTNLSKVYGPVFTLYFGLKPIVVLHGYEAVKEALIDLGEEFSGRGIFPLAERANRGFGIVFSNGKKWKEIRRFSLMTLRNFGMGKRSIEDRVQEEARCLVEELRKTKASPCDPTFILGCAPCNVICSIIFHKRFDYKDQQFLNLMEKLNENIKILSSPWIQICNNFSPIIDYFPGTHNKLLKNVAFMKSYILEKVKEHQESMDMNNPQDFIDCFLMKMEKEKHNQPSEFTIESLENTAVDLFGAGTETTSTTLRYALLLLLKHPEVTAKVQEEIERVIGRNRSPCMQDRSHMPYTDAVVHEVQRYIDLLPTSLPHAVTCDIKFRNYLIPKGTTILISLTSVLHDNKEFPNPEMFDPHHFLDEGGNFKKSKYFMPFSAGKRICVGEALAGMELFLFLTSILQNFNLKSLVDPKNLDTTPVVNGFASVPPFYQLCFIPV

For `COC[C@](CO)(OC[C@H]1O[C@@H](n2ncc3c(NC4CCCC4)nc(Cl)nc32)[C@H](O)[C@@H]1O)P(=O)(O)O`, the inhibition [1] was “Active”, the inhibition [2] was “Active” and the inhibition [3] was “Active”. For the same compound, the Vd [4] was 0.1 L/kg, the Activity [5] was “Active” and the IC50 [6] was greater than 20000 nM. The clearance [7] was 3 mL/min/kg, the Vd [8] was 0.29 L/kg and the Activity [9] was “Active”. The AUC(0-inf) [10] was 45.1 µM·h, the IC50 [11] was greater than 20000 nM and the EC50 [12] was 0.79 nM. For the same compound, the Cmax [13] was 1250 nM, the inhibition [14] was 100% and the IC50 [15] was 0.25 nM. For the same compound, the Activity [16] was 100%, the Vd [17] was 0.22 L/kg and the Activity [18] was “Active”. It also gave a Cmax [19] of 820 nM, an AUC [20] of 14.2 µM·h and an EC50 [21] of 14 nM. The inhibition [22] was 100%, the IC50 [23] was greater than 20000 nM and the half-life [24] was 4.6 h. For the same compound, the half-life [25] was 8.5 h, the half-life [26] was 0.82 h and the Cmax [27] was 42200 nM. For the same compound, the Activity [28] was 95%, the inhibition [29] was 100% and the inhibition [30] was “Dose-dependent effect”. The clearance [31] was 0.833 mL/min/kg, the Cmax [32] was 1720 nM and the clearance [33] was 20.3 mL/min/kg. The AUC [34] was 1.75 µM·h, the AUC [35] was 1.96 µM·h and the AUC [36] was 2.11 µM·h. The AUC [37] was 7.72 µM·h, the AUC [38] was 0.31 µM·h and the EC50 [39] was 0.22 nM. The half-life [40] was 3.3 h and the inhibition [41] was “Active”.
